Molecular target: T1, AR protein (Homo sapiens, UniProt P10275)
T1 construct: endogenous in cells; host or cells: VCaP
T1 sequence (P10275 1-920): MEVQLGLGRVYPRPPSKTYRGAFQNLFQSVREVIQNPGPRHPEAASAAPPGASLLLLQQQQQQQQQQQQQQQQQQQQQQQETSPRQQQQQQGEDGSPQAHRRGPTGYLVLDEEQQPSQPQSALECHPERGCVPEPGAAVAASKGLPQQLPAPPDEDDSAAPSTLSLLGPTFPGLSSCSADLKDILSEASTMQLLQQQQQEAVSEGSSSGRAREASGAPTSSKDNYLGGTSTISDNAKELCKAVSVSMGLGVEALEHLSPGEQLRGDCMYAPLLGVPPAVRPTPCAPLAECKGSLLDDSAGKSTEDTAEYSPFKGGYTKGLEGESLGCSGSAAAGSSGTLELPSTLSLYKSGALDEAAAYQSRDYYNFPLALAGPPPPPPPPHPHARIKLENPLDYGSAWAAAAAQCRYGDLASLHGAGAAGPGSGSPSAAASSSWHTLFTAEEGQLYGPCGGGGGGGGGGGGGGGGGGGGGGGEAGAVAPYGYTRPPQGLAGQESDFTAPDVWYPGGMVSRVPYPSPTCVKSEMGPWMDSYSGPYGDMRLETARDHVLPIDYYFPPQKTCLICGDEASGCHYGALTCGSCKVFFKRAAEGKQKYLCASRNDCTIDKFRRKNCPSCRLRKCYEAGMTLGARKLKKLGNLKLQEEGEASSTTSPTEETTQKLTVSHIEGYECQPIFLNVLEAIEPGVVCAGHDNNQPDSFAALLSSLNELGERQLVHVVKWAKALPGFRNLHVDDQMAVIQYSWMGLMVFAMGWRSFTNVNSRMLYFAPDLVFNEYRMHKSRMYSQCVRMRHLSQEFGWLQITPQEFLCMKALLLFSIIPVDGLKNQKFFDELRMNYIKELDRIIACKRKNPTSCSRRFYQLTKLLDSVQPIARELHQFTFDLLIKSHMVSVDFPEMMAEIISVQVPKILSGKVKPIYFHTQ
Assay: Western blotting analysis of AR protein levels in VCaP cells, band quantification, DC50/DC90
Format: cell-based
Conditions: VCaP cells, Table 6; read-out: VCaP DC50
Experimental: The appropriate cell line, e.g., prostate cancer LNCaP, Vcap, or 22RV1 cell line, was treated with Compounds of the Disclosure as indicated. The treated cells were lysed with RIPA buffer. […] GAPDH was used as a loading control.
Bands were quantified with ImageJ software. The relative numbers of each band obtained from normalization with its corresponding GAPDH level were compared with Prism 8 software. The DC50 values were produced from Prism 8, and the DC90 values were calculated with an equation=Bottom+(Top−Bottom)/(1+10^((Log EC50−X)*HillSlope) based on DC50 and Hillslope values.

C[C@H]1CC2(CCN(c3ccc(C(=O)N4CCN(C5CN(c6cc7c(cc6F)C(=O)N(C6CCC(=O)NC6=O)C7=O)C5)CC4)nn3)CC2)CN1c1ccc(C#N)c(Cl)c1 (stereo partly drawn) [Cpd. No. 501, 2-chloro-4-((3S)-8-(6-(4-(1-(2-(2,6-dioxopiperidin-3-yl)-6-fluoro-1,3-dioxoisoindolin-5-yl)azetidin-3-yl)piperazine-1-carbonyl)pyridazin-3-yl)-3-methyl-2,8-diazaspiro[4.5]decan-2-yl)benzonitrile]
DC50: < 1 nM

C[C@H]1CC2(CCN(c3ccc(C(=O)N4CCC(CN5Cc6cc7c(cc6C5)C(=O)N(C5CCC(=O)NC5=O)C7=O)CC4)c(F)c3)CC2)CN1c1ccc(C#N)c(Cl)c1 (stereo partly drawn) [Cpd. No. 534, 2-chloro-4-((3S)-8-(4-(4-((6-(2,6-dioxopiperidin-3-yl)-5,7-dioxo-3,5,6,7-tetrahydropyrrolo[3,4-f]isoindol-2(1H)-yl)methyl)piperidine-1-carbonyl)-3-fluorophenyl)-3-methyl-2,8-diazaspiro[4.5]decan-2-yl)benzonitrile]
DC50: < 1 nM

C[C@H]1CC2(CCN(c3ccc(C(=O)N4CCN(CC5CN(c6cc7c(cc6F)C(=O)N(C6CCC(=O)NC6=O)C7=O)C5)CC4)nn3)CC2)CN1c1ccc(C#N)c(Cl)c1 (stereo partly drawn) [Cpd. No. 503, 2-chloro-4-((3S)-8-(6-(4-((1-(2-(2,6-dioxopiperidin-3-yl)-6-fluoro-1,3-dioxoisoindolin-5-yl)azetidin-3-yl)methyl)piperazine-1-carbonyl)pyridazin-3-yl)-3-methyl-2,8-diazaspiro[4.5]decan-2-yl)benzonitrile]
DC50: 1 to 10 nM

C[C@H]1CC2(CCN(c3ccc(C(=O)N4CCN(CC5CN(c6cc7c(cc6F)C(=O)N(C6CCC(=O)NC6=O)C7=O)C5)CC4)c(F)c3)CC2)CN1c1ccc(C#N)c(Cl)c1 (stereo partly drawn) [Cpd. No. 531, 2-chloro-4-((3S)-8-(4-(4-((1-(2-(2,6-dioxopiperidin-3-yl)-6-fluoro-1,3-dioxoisoindolin-5-yl)azetidin-3-yl)methyl)piperazine-1-carbonyl)-3-fluorophenyl)-3-methyl-2,8-diazaspiro[4.5]decan-2-yl)benzonitrile]
DC50: 1 to 10 nM

C[C@H]1CC2(CCN(c3ccc(C(=O)N4CC[C@@H](N5CCN(c6cc7c(cc6F)C(=O)N(C6CCC(=O)NC6=O)C7=O)CC5)C4)cc3)CC2)CN1c1ccc(C#N)c(Cl)c1 (stereo partly drawn) [Cpd. No. 517, 2-chloro-4-((3S)-8-(4-((3R)-3-(4-(2-(2,6-dioxopiperidin-3-yl)-6-fluoro-1,3-dioxoisoindolin-5-yl)piperazin-1-yl)pyrrolidine-1-carbonyl)phenyl)-3-methyl-2,8-diazaspiro[4.5]decan-2-yl)benzonitrile]
DC50: 1 to 10 nM

C[C@H]1CC2(CCN(c3ccc(C(=O)N4CCN(CC5CN(c6ccc7c(c6)C(=O)N(C6CCC(=O)NC6=O)C7=O)C5)CC4)cc3)CC2)CN1c1ccc(C#N)c(Cl)c1 (stereo partly drawn) [Cpd. No. 535, 2-chloro-4-((3S)-8-(4-(4-((1-(2-(2,6-dioxopiperidin-3-yl)-1,3-dioxoisoindolin-5-yl)azetidin-3-yl)methyl)piperazine-1-carbonyl)phenyl)-3-methyl-2,8-diazaspiro[4.5]decan-2-yl)benzonitrile]
DC50: < 1 nM

C[C@H]1CC2(CCN(c3ccc(C(=O)N4CCN(C5CN(c6cc7c(cc6F)C(=O)N(C6CCC(=O)NC6=O)C7=O)C5)CC4)cn3)CC2)CN1c1ccc(C#N)c(Cl)c1 (stereo partly drawn) [Cpd. No. 507, 2-chloro-4-((3S)-8-(5-(4-(1-(2-(2,6-dioxopiperidin-3-yl)-6-fluoro-1,3-dioxoisoindolin-5-yl)azetidin-3-yl)piperazine-1-carbonyl)pyridin-2-yl)-3-methyl-2,8-diazaspiro[4.5]decan-2-yl)benzonitrile]
DC50: 10 to 100 nM

C[C@H]1CC2(CCN(c3ccc(C(=O)N4CCN(CC5CN(c6cc7c(cc6F)C(=O)N(C6CCC(=O)NC6=O)C7=O)C5)CC4)cc3F)CC2)CN1c1ccc(C#N)c(Cl)c1 (stereo partly drawn) [Cpd. No. 533, 2-chloro-4-((3S)-8-(4-(4-((1-(2-(2,6-dioxopiperidin-3-yl)-6-fluoro-1,3-dioxoisoindolin-5-yl)azetidin-3-yl)methyl)piperazine-1-carbonyl)-2-fluorophenyl)-3-methyl-2,8-diazaspiro[4.5]decan-2-yl)benzonitrile]
DC50: < 1 nM

C[C@H]1CC2(CCN(c3ccc(C(=O)N4CC(N5CCN(c6cc7c(cc6F)C(=O)N(C6CCC(=O)NC6=O)C7=O)CC5)C4)nc3)CC2)CN1c1ccc(C#N)c(Cl)c1 (stereo partly drawn) [Cpd. No. 538, 2-chloro-4-((3S)-8-(6-(3-(4-(2-(2,6-dioxopiperidin-3-yl)-6-fluoro-1,3-dioxoisoindolin-5-yl)piperazin-1-yl)azetidine-1-carbonyl)pyridin-3-yl)-3-methyl-2,8-diazaspiro[4.5]decan-2-yl)benzonitrile]
DC50: 1 to 10 nM

C[C@H]1CC2(CCN(c3ccc(C(=O)N4CC(N5CCN(c6cc7c(cc6F)C(=O)N(C6CCC(=O)NC6=O)C7=O)CC5)C4)nn3)CC2)CN1c1ccc(C#N)c(Cl)c1 (stereo partly drawn) [Cpd. No. 537, 2-chloro-4-((3S)-8-(6-(3-(4-(2-(2,6-dioxopiperidin-3-yl)-6-fluoro-1,3-dioxoisoindolin-5-yl)piperazin-1-yl)azetidine-1-carbonyl)pyridazin-3-yl)-3-methyl-2,8-diazaspiro[4.5]decan-2-yl)benzonitrile]
DC50: 1 to 10 nM

C[C@H]1CC2(CCN(c3ccc(C(=O)N4CCN(C5CCN(c6ccc7c(c6)C(=O)N(C6CCC(=O)NC6=O)C7=O)CC5)CC4)cn3)CC2)CN1c1ccc(C#N)c(Cl)c1 (stereo partly drawn) [Cpd. No. 509, 2-chloro-4-((3S)-8-(5-(4-(1-(2-(2,6-dioxopiperidin-3-yl)-1,3-dioxoisoindolin-5-yl)piperidin-4-yl)piperazine-1-carbonyl)pyridin-2-yl)-3-methyl-2,8-diazaspiro[4.5]decan-2-yl)benzonitrile]
DC50: < 1 nM

C[C@H]1CC2(CCN(c3ncc(C(=O)N4CCC(CN5Cc6cc7c(cc6C5)C(=O)N(C5CCC(=O)NC5=O)C7=O)CC4)cn3)CC2)CN1c1ccc(C#N)c(Cl)c1 (stereo partly drawn) [Cpd. No. 526, 2-chloro-4-((3S)-8-(5-(4-((6-(2,6-dioxopiperidin-3-yl)-5,7-dioxo-3,5,6,7-tetrahydropyrrolo[3,4-f]isoindol-2(1H)-yl)methyl)piperidine-1-carbonyl)pyrimidin-2-yl)-3-methyl-2,8-diazaspiro[4.5]decan-2-yl)benzonitrile]
DC50: < 1 nM

C[C@H]1CC2(CCN(c3ncc(C(=O)N4CCN(C5CN(c6ccc7c(c6)C(=O)N(C6CCC(=O)NC6=O)C7=O)C5)CC4)cn3)CC2)CN1c1ccc(C#N)c(Cl)c1 (stereo partly drawn) [Cpd. No. 512, 2-chloro-4-((3S)-8-(5-(4-(1-(2-(2,6-dioxopiperidin-3-yl)-1,3-dioxoisoindolin-5-yl)azetidin-3-yl)piperazine-1-carbonyl)pyrimidin-2-yl)-3-methyl-2,8-diazaspiro[4.5]decan-2-yl)benzonitrile]
DC50: < 1 nM

C[C@H]1CC2(CCN(c3ncc(C(=O)N4CCC(N5CCN(c6cc7c(cc6F)C(=O)N(C6CCC(=O)NC6=O)C7=O)CC5)CC4)cn3)CC2)CN1c1ccc(C#N)c(Cl)c1 (stereo partly drawn) [Cpd. No. 525, 2-chloro-4-((3S)-8-(5-(4-(4-(2-(2,6-dioxopiperidin-3-yl)-6-fluoro-1,3-dioxoisoindolin-5-yl)piperazin-1-yl)piperidine-1-carbonyl)pyrimidin-2-yl)-3-methyl-2,8-diazaspiro[4.5]decan-2-yl)benzonitrile]
DC50: < 1 nM

From US20220380368A1, “SPIROCYCLIC ANDROGEN RECEPTOR PROTEIN DEGRADERS” (THE REGENTS OF THE UNIVERSITY OF MICHIGAN, priority 2019, published 2022)
